Data: PMC4914250, “Cancer therapeutic approach based on conformational stabilization of mutant p53 protein by small peptides” (Oncotarget, 2016)

Experiments:
ES2 ovarian cancer cells = test: Crystal violet viability assay, ES2; assay type: cell-based, human; conditions: 48 h; for Viability ES2: score 0-6 compared to positive control; for mutp53-specific effect on cell number, ES2: ES2 (mp53^S241F) versus ES2 p53KO
Protocol: Cell extracts were added to ELISA plates coated with the indicated antibodies to allow mutp53 to react with the peptides and antibodies. αp53-HRP Ab was used for assessment of p53 levels. Numbers represent ratio of absorbance between the PAb1620 and PAb240 samples. All reads were normalized to the control […] reading of each extract. MCF7 (WTp53) and H1299-mutp53^A135V (tsp53) cells were used as positive controls for the WTp53 conformation (1620/240 ratio equals or exceeds 5:1). […] 96 well plates were coated with anti-p53 antibody, cell extracts containing p53 were reacted with oligonucleotides that contain a p53RE consensus binding site, labeled with biotin, in the presence or absence (NT) of test peptides. Streptavidin-HRP is used to quantify the amount of oligos in the well. TMB assay was performed to determine bound mutp53 levels (450nm). MCF7 and the H1299-mutp53^A135V(TS) cells serve as positive controls for WTp53. C.and D. - Bar graphs illustrating the effect of various selected peptides on mut-p53 dependent expression on cell viability. […] D, ES2 cells expressing endogenous mutp53 (blue bars) and ES2 cells knocked out for p53 by CRISPR construct (light blue bars). Cell lines were treated with selected peptides, Cis-platinum was used as positive control for cell death. 48 hours after treatment, cells were washed with PBS, and the remaining attached cells were stained with Crystal violet and washed 4 times with PBS. Stained cells were dissolved in 10% acetic acid and plates were taken for optical density measurement at […]. TEXT PRINTED IN THE PICTURE: (A) pCAP1: 0.87 | (A) pCAP2: 0.53 | (A) pCAP3: 0.59 | (A) pCAP4: 0.59 | (A) pCAP5: 0.60 | (A) pCAP6: 0.75 | (A) pCAP23: 1.06 | (A) pCAP24: 1.44 | (A) pCAP36: 1.25 | (A) pCAP47: 1.54 | (A) pCAP54: 1.54 | (A) pCAP60: 2.73 | (A) pCAP68: 2.22 | (A) pCAP83: 1.56 | (A) pCAP97: 2.45 DOUBTS OF THE COPYIST ABOUT THIS PICTURE: Panel A: the numbers over the bars are printed very small, rotated and blurred, so 3, 5, 6, 8 and 9 cannot be told apart with certainty. All values are best readings: pCAP1 0.87, pCAP2 0.53, pCAP3 0.59, pCAP4 0.59, pCAP5 0.60, pCAP6 0.75, pCAP23 1.06, pCAP24 1.44, pCAP36 1.25, pCAP47 1.54, pCAP54 1.54, pCAP60 2.73, pCAP68 2.22, pCAP83 1.56, pCAP97 2.45 / Panel A: the picture prints no measure with the numbers over the bars, so they are given as bare numbers / Panel A: numbers are also printed over the controls, which are not substances and are left out of lines. Best readings: NT 0.60, 60° 30'' 0.48, 60° 1' 0.37, 60° 3' 0.13, 60° 10' 0.05, MCF7 3.32, H1299TS 3.25
(§1) We also performed a similar analysis on ES2 ovarian cancer cells, which express endogenous mp53^S241F, compared to ES2 cells in which p53 was stably knocked out using CRISPR/Cas9 (ES2 p53KO Figure S1F), to control for specificity for mutp53 (Figure 2D). In ES2 cells, too, some of the peptides caused a significant reduction in cell numbers, more prominent in the mutp53 expressing cells than in their p53KO counterparts. […] Overall, we performed this analysis on several different mutp53-expressing human cancer cell lines, and the results are summarized in Table S3. Based on this comprehensive picture, we reduced the number of most promising candidate lead peptides to 30. These peptides were then synthesized with an 8 arginine C-terminal tail for enhanced delivery across cell membranes (pCAPs 130-160); for clarity, peptides are referred to by their original number, with an R for poly arginine (see Table S3).
(§2) Cells were cultured in 96 wells plates with 2500-4000 cells/well. Serial dilutions of different peptides were added and the plates incubated for additional 48 h at 37°C. Then medium was removed and cell viability was determined by staining the cells with crystal violet (0.05%) in methanol/PBS (1:5, v/v), for 10 min, followed by 3 washes with PBS. 10% acetic acid was added to each well for 10 min. OD was determined at 595 nm.

SK3 = test: Crystal violet viability assay, SK3; assay type: cell-based, human; set-up: key: score 0- no effect-white; score 6- as or more effective than positive control- black; conditions: score 0-6 compared to positive control, 48 h
Source text: as §1, §2

mutp53 = test: Summary score of peptide functional screens; conditions: overall score over conformation, DNA binding, viability and PCR screens
[1] = test system: H1299 cells expressing mutp53^R175H; test: Crystal violet viability assay, H1299; assay type: cell-based; conditions: 48 h; for mutp53-specific effect on cell number, H1299: H1299 mutp53^R175H versus p53-null; for Viability H1299: score 0-6 compared to positive control
Protocol: Cell extracts were added to ELISA plates coated with the indicated antibodies to allow mutp53 to react with the peptides and antibodies. αp53-HRP Ab was used for assessment of p53 levels. Numbers represent ratio of absorbance between the PAb1620 and PAb240 samples. All reads were normalized to the control PAb241 reading of each extract. MCF7 (WTp53) and H1299-mutp53^A135V (tsp53) cells were used as positive controls for the WTp53 conformation (1620/240 ratio equals or exceeds 5:1). […] 96 well plates were coated with anti-p53 antibody, cell extracts containing p53 were reacted with oligonucleotides that contain a p53RE consensus binding site, labeled with biotin, in the presence or absence (NT) of test peptides. Streptavidin-HRP is used to quantify the amount of oligos in the well. TMB assay was performed to determine bound mutp53 levels (450nm). MCF7 and the H1299-mutp53^A135V(TS) cells serve as positive controls for WTp53. C.and D. - Bar graphs illustrating the effect of various selected peptides on mut-p53 dependent expression on cell viability. […] D, ES2 cells expressing endogenous mutp53 (blue bars) and ES2 cells knocked out for p53 by CRISPR construct (light blue bars). Cell lines were treated with selected peptides, Cis-platinum was used as positive control for cell death. 48 hours after treatment, cells were washed with PBS, and the remaining attached cells were stained with Crystal violet and washed 4 times with PBS. Stained cells were dissolved in 10% acetic acid and plates were taken for optical density measurement at 595nM.
This simple assay measures the total number of cells, thus reflecting the combination of both cell death and growth arrest effects. […] After 48 hours of treatment cells were stained with crystal violet and OD at 595nm was determined.
Values on the Y-axis reflect the number of cells in the treated wells, normalized to the non-treated samples (NT; red bars).

EP156 = test: Crystal violet viability assay, EP156; assay type: cell-based; set-up: key: score 0- no effect-white; score 6- as or more effective than positive control- black; conditions: score 0-6 compared to positive control, 48 h
Source text: as §1, §2

WI38 = test: Crystal violet viability assay, WI38; assay type: cell-based; set-up: key: score 0- no effect-white; score 6- as or more effective than positive control- black; conditions: score 0-6 compared to positive control, 48 h
Protocol: as §2

Substance	Viability ES2 (ES2 ovarian cancer cells)	Viability SK3 (SK3)	SCORE (mutp53)	mutp53-specific effect on cell number, H1299 [1]	mutp53-specific effect on cell number, ES2 (ES2 ovarian cancer cells)	Viability EP156 (EP156)	Viability H1299 [1]	Viability WI38 (WI38)
HHPWTHHQRWS [pCAP-20]	3	3	19	–	–	–	–	–
LRCLLLLIGRVG [pCAP-24]	–	–	23	mutp53-specific effect	mutp53-specific effect	4	–	–
YPTQGHLR [pCAP-36]	3	–	32	mutp53-specific effect	mutp53-specific effect	4	2	4
HANLHHT [pCAP-87]	–	–	32	–	–	4	3	–
EVTFRHSVV [pCAP-1, randomly selected peptide used as inert comparison]	4	3	19	–	–	–	1	–
IRILMFLIGCGRRRRRRRRR [pCAP-23R, pCAP-23 with poly arginine tail]	3	3	24	–	–	4	3	2
SFILFIRRGRLGRRRRRRRRR [pCAP-60R, pCAP-60 with poly arginine tail]	3	5	32	–	–	2	2	2
SFILFIRRGRLG [pCAP-60]	3	3	26	mutp53-specific effect	mutp53-specific effect	4	2	–
myr-RRIRDPRILLLHFD [pCAP-325]	4	3	53	–	–	4	5	6
myr-RRKILFIRLMHNKH [pCAP-227, myristoylated peptide, similarity to GAS2]	5	6	56	–	–	4	5	3
HSSHHHPVHSWN [pCAP-83]	–	–	27	mutp53-specific effect	mutp53-specific effect	4	4	3
WNHHHSTPHPAHRRRRRR [pCAP-97R, pCAP-97 with poly arginine tail]	4	3	46	–	–	4	4	4
LRCLLLLIGRVGRRRRRRRR [pCAP-24R, pCAP-24 with poly arginine tail]	3	2	34	–	–	4	4	–
YRRLLIGMMWRRRRRRRRR [pCAP-68]	5	–	37	–	–	3	3	–
IRILMFLIGCGR [pCAP-23]	3	3	21	–	–	4	3	–
LHSKTLVL [pCAP-17]	3	3	20	–	–	4	–	–
IRGRIIR [pCAP-54]	–	4	23	mutp53-specific effect	mutp53-specific effect	4	–	4
myr-RRLIVRILKLPNPPER [pCAP-242]	5	5	55	–	–	6	5	4
IRGRIIRRRRRRRRR [pCAP-54R, pCAP-54 with poly arginine tail]	3	4	28	–	–	4	2	4
WNHHHSTPHPAH [pCAP-97]	3	–	39	mutp53-specific effect	mutp53-specific effect	3	3	4
myr-PRVLPSPHTIHPSQYP [pCAP-229, myristoylated peptide, similarity to HIPK2]	–	3	35	–	–	3	4	3
